Target: truncated Polθ protein (Polθ-Hel containing the helicase domain (67-894)) (Homo sapiens (Human), UniProt O75417)
Assay: Polθ ATPase assay (Biological Assay 1, ADP-Glo luminescence)
Type: biochemical
Method: The Polθ ATPase assay was used to evaluate inhibitors of Polθ ATPase activity, in vitro. Experiments were performed using a truncated Polθ protein (Polθ-Hel containing the helicase domain (67-894), ATP and a DNA single strand Oligo (5′-CTGTCCTGCATGATG-3′) in the Polθ assay buffer (20 mM Tris-HCl (pH 8.8), MgCl2 5 mM, tween20 0.01%, NP40 0.01%, BSA 0.01%, DTT 1 mM). 2 μL of assay buffer containing Polθ-Hel protein (0.5 nM) and DNA substrate (500 nM) was transferred into assay ready plates, containing 0.04 μL of compounds diluted in DMSO. After a 30 minutes incubation at 23° C. in the dark, the reaction was triggered by adding 2 μL of ATP (60 μM), in assay buffer. After 60 minutes at 23° C., 4 μl of ADP-Glo™ Reagent (Glo 1) was added followed by 40 minutes of incubation, then 8 μl of ADP-Glo™ kinase Detection Reagent (Glo 2) followed by 60 minutes of incubation at 23° C. Luminescence was then measured using Tecan F200 infinite plate reader. Raw data were analysed using GeneData to generate IC50 values.
The Polθ ATPase assay described in Biological Assay 1 above was used to evaluate inhibitors of Polθ ATPase activity for the compounds described in the Experimental Part B above, in vitro.

[1] = Table A, Polθ-Hel 0.5 nM, DNA substrate 500 nM, ATP 60 μM

truncated Polθ protein (Polθ-Hel containing the helicase domain (67-894)), sequence (O75417 67-894): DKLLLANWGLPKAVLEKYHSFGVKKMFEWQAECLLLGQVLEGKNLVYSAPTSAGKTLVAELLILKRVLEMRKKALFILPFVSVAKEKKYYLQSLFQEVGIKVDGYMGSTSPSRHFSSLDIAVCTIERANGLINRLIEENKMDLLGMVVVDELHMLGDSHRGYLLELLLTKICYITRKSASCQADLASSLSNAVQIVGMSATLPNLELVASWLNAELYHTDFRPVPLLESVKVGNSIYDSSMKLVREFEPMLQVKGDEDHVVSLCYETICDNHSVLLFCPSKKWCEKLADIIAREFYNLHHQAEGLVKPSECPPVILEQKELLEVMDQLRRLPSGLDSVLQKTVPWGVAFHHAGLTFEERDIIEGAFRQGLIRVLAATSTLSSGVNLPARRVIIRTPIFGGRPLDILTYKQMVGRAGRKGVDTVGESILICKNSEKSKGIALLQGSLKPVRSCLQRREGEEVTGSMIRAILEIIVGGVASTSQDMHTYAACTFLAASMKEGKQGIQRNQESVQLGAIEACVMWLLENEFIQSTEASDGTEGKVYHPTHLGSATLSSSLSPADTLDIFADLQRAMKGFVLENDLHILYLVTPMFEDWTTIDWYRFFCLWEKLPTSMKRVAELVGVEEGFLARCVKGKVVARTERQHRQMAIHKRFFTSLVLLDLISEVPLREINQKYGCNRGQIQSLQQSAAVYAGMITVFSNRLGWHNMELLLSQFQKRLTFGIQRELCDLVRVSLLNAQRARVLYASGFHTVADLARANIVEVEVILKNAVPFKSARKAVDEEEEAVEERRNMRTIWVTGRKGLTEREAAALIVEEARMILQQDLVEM

Structure (SMILES): COc1ccccc1-c1cnccc1C(=O)Nc1nc2ccccc2s1 [Example 15, N-(1,3-benzothiazol-2-yl)-3-(2-methoxyphenyl) pyridine-4-carboxamide]
- IC50 [1]: > 1000 nM

Structure (SMILES): COc1cnc(Cl)cc1-c1cc(C)ncc1C(=O)Nc1nc2cnc(N3CCC(O)CC3)cc2s1 [Example 68, 2′-chloro-N-[6-(4-hydroxypiperidin-1-yl)-[1,3]thiazolo[4,5-c]pyridin-2-yl]-5′-methoxy-6-methyl-[4,4′-bipyridine]-3-carboxamide]
- IC50 [1]: < 100 nM

Structure (SMILES): COc1cnc(Cl)cc1-c1cc(C)ncc1C(=O)Nc1nc2cnc(N3CC(OC)C3)cc2s1 [Example 129, 2′-chloro-5′-methoxy-N-[6-(3-methoxyazetidin-1-yl)-[1,3]thiazolo[4,5-c]pyridin-2-yl]-6-methyl-[4,4′-bipyridine]-3-carboxamide]
- IC50 (Table B (Part B compounds), same assay as Biological Assay 1): < 100 nM

Structure (SMILES): COc1cnc(Cl)cc1-c1cc(C)ncc1C(=O)Nc1nc2ccc(I)cc2s1 [Example 4, 2′-chloro-N-(6-iodo-1,3-benzothiazol-2-yl)-5′-methoxy-6-methyl-[4,4′-bipyridine]-3-carboxamide]
- IC50 [1]: < 100 nM

— US12145945B2, “Compounds, compositions, and therapeutic uses thereof” (Breakpoint Therapeutics GmbH, priority 2023, dated 2024)
